Measurements: patent publication US20150258052A1, “METHODS OF USING FEXARAMINE AND AGENTS THAT INCREASE SYMPATHETIC NERVOUS SYSTEM ACTIVITY TO PROMOTE BROWNING OF WHITE ADIPOSE TISSUE” (Salk Institute for Biological Studies, priority 2014, published 2015)

Assays:
DIO mice = assay: Chronic oral fexaramine in diet-induced obesity (DIO) mice: weight, adiposity, serum parameters, GTT, ITT; assay type: in vivo; settings: for glucose tolerance (glucose tolerance test) / insulin sensitivity (insulin tolerance test): PO 5 weeks
Experimental: FIGS. 2A-2G are graphs illustrating the reduction of diet-induced obesity and improvement in metabolic homeostasis with fexaramine. Mice were fed a high fat diet (HFD) for 14 weeks and then administered daily oral injections of vehicle (open boxes) or fexaramine (100 mg/kg) (solid boxes) for 5 weeks with HFD. Data represent the mean±STD. Statistical analysis was performed with the Student's t test (*p<0.05, **p<0.01).
FIG. 2A is a line chart illustrating changes in body weight of mice fed a high fat diet (HFD) for 14 weeks and then administered daily oral injections of vehicle (open boxes) or fexaramine (100 mg/kg) (solid boxes) for 5 weeks with HFD. n=8 per group.
FIG. 4A is a line graph showing the effects of fexaramine at various dosage levels on the body weight of mice fed a HFD for 14 weeks and then administered daily oral injections of vehicle or fexaramine (10, 50 or 100 mg/kg) for 5 weeks with a HFD. Data represent the mean±STD. Statistical analysis was performed with the Student's t test (*p<0.05, **p<0.01).
FIG. 4B is a set of digital images showing histological analysis of the ileum and colon following treatment with fexaramine or vehicle. Mice were fed on HFD for 14 weeks, and then administered daily oral injections of vehicle or fexaramine (100 mg/kg) for 5 weeks with HFD.
FIG. 4C is a line graph showing glucose tolerance tests in mice fed a HFD for 14 weeks and then administered daily oral injections of vehicle or fexaramine (10, 50 or 100 mg/kg) for 5 weeks with HFD. Data represent the mean±STD. Statistical analysis was performed with the Student's t test (*p<0.05, **p<0.01).
The physiological effects of fexaramine in established obesity (diet-induced obesity, DIO) models were evaluated. C57BL/6J mice were fed a diet of 60% fat for 14 weeks and then treated PO with vehicle or fexaramine (100 mg/kg) for 5 weeks. […] Analyses of serum metabolic parameters including leptin, insulin, cholesterol, and resistin reflected that fexaramine-mediated weight gain resistance is accompanied by improved endocrine and metabolic profiles (FIGS. 2D and 4D).
Obesity and its metabolic complications are associated with chronic low-grade inflammation, reflected by elevated serum levels of inflammatory cytokines. […] Therefore, glucose tolerance tests (GTTs) and insulin tolerance tests (ITTs) were performed to determine if glucose homeostasis was improved in fexaramine-treated DIO mice.

[1] = system: brown adipose tissue (BAT); assay: Energy expenditure and brown adipose tissue (BAT) analysis in Fex-treated DIO mice; assay type: in vivo
Experimental: Mice were fed HFD for 14 weeks and then administered vehicle or fexaramine (100 mg/kg) daily by oral administration for 5 weeks with HFD. Data represent the mean±STD. Statistical analysis was performed with the Student's t test (*p<0.05, **p<0.01).
FIG. 6M is a bar chart showing the effect of fexaramine on respiratory exchange ratio (RER). Mice were fed on HFD for 14 weeks, and then administered daily oral injections of vehicle or fexaramine (100 mg/kg) for 5 weeks with HFD.
FIG. 6N is a bar graph showing the effect of fexaramine administration on serum lactate concentrations. Mice were fed on HFD for 14 weeks, and then administered daily oral injections of vehicle or fexaramine (100 mg/kg) for 5 weeks with HFD. […] Data represent the mean±STD. Statistical analysis was performed with the Student's t test (*p<0.05, **p<0.01).
(FIG. 6E). […] Gene expression analysis confirmed the induction of ERRγ, PGC-1α, and PGC-1β, as well as a number of their target genes involved in thermogenesis, mitochondrial biogenesis, and fatty acid oxidation in BAT (FIG. 6G).

[2] = LC/MS quantification of serum fexaramine after PO or IP administration; assay type: in vivo, mice
Experimental: FIG. 1D is a schematic diagram illustrating an experimental procedure used to evaluate fexaramine, where mice were treated with vehicle or fexaramine (100 mg/kg) via PO or IP injection, and LC/MS quantification of serum fexaramine was conducted five days later.
FIG. 1E is a bar chart illustrating serum fexaramine concentrations after administration as described in FIG. 1D. Data represent mean values±STD. Statistical analysis was performed with the Student's t test (*p<0.05, **p<0.01).
Upon exploration of the in vivo effects of fexaramine (Fex) administration, it was discovered that due to ineffectual absorption, oral (PO) and intraperitoneal (IP) drug delivery produced very different effects (FIGS. 1D and 1E).

[3] = DIO mice, 100 mg/kg PO 5 weeks, listed as fexaramine, 100 mg/kg

SMILES: COC(=O)/C=C/c1cccc(N(Cc2ccc(-c3ccc(N(C)C)cc3)cc2)C(=O)C2CCCCC2)c1 [Fex, fexaramine]
- intestinal toxicity (histology of ileum and colon) (DIO mice; DIO mice, 100 mg/kg PO 5 weeks): no signs of intestinal toxicity
- overall fat mass (MRI) (DIO mice; DIO mice, 100 mg/kg PO 5 weeks): reduced overall fat mass
- serum levels of inflammatory cytokines TNFα, IL-1α, IL-1β, IL-17 and MCP-1 (DIO mice; DIO mice, 100 mg/kg PO 5 weeks): markedly decreased
- wet weights of subcutaneous (inguinal) and visceral (gonadal and mesenteric) adipose depots (DIO mice; DIO mice, 100 mg/kg PO 5 weeks): significant reductions
- glucose, insulin, leptin, cholesterol and resistin levels (DIO mice; DIO mice, 100 mg/kg PO 5 weeks, serum after 8 hours fasting): reduced glucose, insulin, leptin, cholesterol, and resistin levels
- prevention of weight gain, dose dependence (DIO mice; DIO mice, 10, 50 or 100 mg/kg PO 5 weeks): dose-dependent manner
- weight gain (DIO mice; DIO mice, HFD 14 weeks then 100 mg/kg PO 5 weeks): prevented weight gain
- glucose tolerance (glucose tolerance test) (DIO mice; DIO mice): dose-dependent improvements
- insulin sensitivity (insulin tolerance test) (DIO mice; DIO mice): dose-dependent improvements
- glucose tolerance (glucose tolerance test) (DIO mice; DIO mice, listed as fexaramine): improved glucose clearance
- insulin sensitivity (insulin tolerance test) (DIO mice; DIO mice, listed as fexaramine): improved insulin sensitivity
- weight gain at the highest dose (DIO mice; DIO mice, highest dose): almost completely abrogated
- OXPHOS gene expression changes in inguinal, gonadal and brown adipose depots (RNA-sequencing) ([1]; DIO mice, 100 mg/kg PO 5 weeks): selectively enhance OXPHOS activity only in BAT
- PKA activity in BAT ([1]; DIO mice, 100 mg/kg PO 5 weeks): increased PKA activity
- accumulation of lipid vesicles in BAT (histology) ([1]; DIO mice, 100 mg/kg PO 5 weeks): markedly reduced
- ambulatory counts (activity) ([1]; DIO mice, 100 mg/kg PO 5 weeks): more active than control mice
- carbon dioxide production (VCO2) ([1]; DIO mice, 100 mg/kg PO 5 weeks): exhaled more carbon dioxide
- gene expression of ERRγ, PGC-1α, PGC-1β and target genes in BAT ([1]; DIO mice, 100 mg/kg PO 5 weeks): induction
- oxygen consumption (VO2) ([1]; DIO mice, 100 mg/kg PO 5 weeks): consistently higher oxygen consumption
- phosphorylation level of p38 in BAT ([1]; DIO mice, 100 mg/kg PO 5 weeks): increased the phosphorylation level of p38
- serum lactate levels ([1]; DIO mice, 100 mg/kg PO 5 weeks, 100 mg/kg): significantly reduced
- respiratory exchange ratio (RER) [1, 3]: No changes were observed
- serum lactate levels [1, 3]: significantly decreased
- food intake ([1]; DIO mice, first week of treatment): not attributable to difference in food intake
- DIO2 (downstream target of TGR5) in BAT ([1]; oral Fex): induce DIO2
- serum Fex level after PO relative to IP levels ([2]; acute 100 mg/kg, PO compared to IP): 10%
- concentration at 5 days ([2]; mouse, serum, PO 100 mg/kg, read-out: serum levels of Fex after PO administration): < 25 nM
